The values below come from ChEMBL document CHEMBL1137908, “Synthesis and antibacterial activity of novel 6-fluoro-1-[(1R,2S)-2-fluorocyclopropan-1-yl]-4-oxoquinoline-3-carboxylic acids bearing cyclopropane-fused 2-amino-8-azabicyclo[4.3.0]nonan-8-yl substituents at the C-7 position” (Bioorg Med Chem Lett, 2004).

One assay concerns the target DNA topoisomerase II (Homo sapiens, UniProt P11388+Q02880). The assay is described as follows: Inhibitory concentration against human DNA topoisomerase II. It counts as protein assay.
For assay [1], the system named is Staphylococcus epidermidis. As to the kind of experiment: Antibacterial activity against Staphylococcus epidermidis 56500 was determined. It counts as functional.
The subject of a further assay is Klebsiella pneumoniae. The assay is described as follows: Antibacterial activity against Klebsiella pneumoniae type II was determined. It counts as functional.
The subject of the next assay is Streptococcus mitis. The assay is described as follows: Antibacterial activity against Streptococcus mitis IID685 was determined. It counts as functional.
The next assay has as its system Streptococcus pyogenes. The assay is described as follows: Antibacterial activity against Streptococcus pyogenes G-36 was determined. Format: functional.
The next assay has as its system Escherichia coli. The assay is described as follows: Antibacterial activity against Escherichia coli NIHJ was determined. It counts as functional.
A further assay relates to Enterococcus faecalis. As to the kind of experiment: Antibacterial activity against Enterococcus faecalis ATCC 19433 was determined. Format: functional.
Assay [2] deals with Staphylococcus aureus. As to the kind of experiment: Antibacterial activity against Staphylococcus aureus FDA 209P was determined. Format: functional.
The target of assay [3] is T1, DNA topoisomerase 4 subunit A (Staphylococcus aureus subsp. aureus Mu50, UniProt Q931S2).
T1 sequence (Q931S2 whole entry): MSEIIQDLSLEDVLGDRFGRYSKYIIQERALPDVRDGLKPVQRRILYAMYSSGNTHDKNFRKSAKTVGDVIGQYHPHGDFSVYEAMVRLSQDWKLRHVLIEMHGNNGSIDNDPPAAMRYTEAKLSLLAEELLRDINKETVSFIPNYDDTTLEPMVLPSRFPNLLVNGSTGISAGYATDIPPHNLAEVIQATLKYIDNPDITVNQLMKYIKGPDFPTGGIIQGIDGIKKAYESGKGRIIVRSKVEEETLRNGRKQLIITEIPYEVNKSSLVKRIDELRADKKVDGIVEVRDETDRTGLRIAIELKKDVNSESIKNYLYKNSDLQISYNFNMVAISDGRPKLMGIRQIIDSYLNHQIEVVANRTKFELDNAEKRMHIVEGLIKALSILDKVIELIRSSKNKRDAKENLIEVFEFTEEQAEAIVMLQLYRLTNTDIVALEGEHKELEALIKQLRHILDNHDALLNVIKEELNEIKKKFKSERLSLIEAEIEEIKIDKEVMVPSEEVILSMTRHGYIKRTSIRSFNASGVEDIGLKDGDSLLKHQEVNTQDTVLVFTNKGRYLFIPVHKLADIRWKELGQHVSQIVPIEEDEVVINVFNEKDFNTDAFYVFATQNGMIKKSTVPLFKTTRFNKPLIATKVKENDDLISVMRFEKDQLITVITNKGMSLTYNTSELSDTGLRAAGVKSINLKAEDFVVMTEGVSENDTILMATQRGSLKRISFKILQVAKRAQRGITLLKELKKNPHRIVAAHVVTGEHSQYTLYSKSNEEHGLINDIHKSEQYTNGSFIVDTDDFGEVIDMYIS
The assay is described as follows: Inhibitory concentration against Staphylococcus aureus DNA topoisomerase IV.

Assay [4] relates to Staphylococcus aureus. The assay is described as follows: Antibacterial activity against methicillin-resistant Staphylococcus aureus (MRSA) 870307 was determined. It counts as functional.
In another assay the test system is Streptococcus pneumoniae. The assay is described as follows: Antibacterial activity against Penicillin-resistant Streptococcus pneumoniae (PRSP) J-24 was determined. It counts as functional.
The nature of assay [5]: Ratio of binding to human DNA topoisomerase II and Staphylococcus aureus DNA topoisomerase IV.
Setting [6] is: Staphylococcus aureus, read-out: MIC.

Converted amounts (≈) assume the structure as drawn.

In the case of `Nc1c(F)c(N2C[C@H]3C[C@@H]4C[C@@H]4[C@@H](N)[C@H]3C2)c(F)c2c1c(=O)c(C(=O)O)cn2[C@@H]1C[C@@H]1F` (stereo in doubt; 24 (+)) [listing 1 of 2 here], the IC50 against DNA topoisomerase II is 22.47 µg/mL (≈ 50.1 µM); in assay [3], 312 nM. In addition, the MIC entry in assay [1] was “<=0.003 ug ml-1”; with Klebsiella pneumoniae it was 0.01 µg/mL (≈ 0.0223 µM); against Streptococcus mitis it was “<=0.003 ug ml-1”; with Streptococcus pyogenes, “<=0.003 ug ml-1”; with Escherichia coli, “<=0.003 ug ml-1”; in the assay with Enterococcus faecalis, 0.02 µg/mL (≈ 0.0446 µM). For the same molecule, the MIC in the assay on Staphylococcus aureus [2] (setting [6]) was ≤ 0.003 µg/mL; against Staphylococcus aureus [4] it was 0.01 µg/mL (≈ 0.0223 µM); in the assay on Streptococcus pneumoniae it was “<=0.003 ug ml-1”.

For `Nc1c(F)c(N2C[C@H]3CCC[C@@H](N)[C@H]3C2)c(F)c2c1c(=O)c(C(=O)O)cn2[C@@H]1C[C@@H]1F` (stereo in doubt; 28 (+)), the Selectivity in assay [5] is 38.3.

For `Nc1c(F)c(N2C[C@H]3C[C@@H]4C[C@@H]4[C@@H](N)[C@H]3C2)c(F)c2c1c(=O)c(C(=O)O)cn2[C@@H]1C[C@@H]1F` (stereo in doubt; 25 (-)), the MIC in assay [1] was determined as 0.05 µg/mL (≈ 0.111 µM); against Klebsiella pneumoniae, 0.1 µg/mL (≈ 0.223 µM); against Streptococcus mitis, 0.1 µg/mL (≈ 0.223 µM); in the assay on Streptococcus pyogenes, 0.39 µg/mL (≈ 0.87 µM); in the assay on Escherichia coli it was 0.01 µg/mL (≈ 0.0223 µM); in the assay on Enterococcus faecalis it was 0.2 µg/mL (≈ 0.446 µM). Moreover, the MIC with Staphylococcus aureus [2] is 0.006 µg/mL (≈ 0.0134 µM); in the assay on Staphylococcus aureus [4], 1.56 µg/mL (≈ 3.48 µM); in the assay on Streptococcus pneumoniae it was 0.1 µg/mL (≈ 0.223 µM).

`Nc1c(F)c(N2C[C@H]3C[C@@H]4C[C@@H]4[C@H](N)[C@H]3C2)c(F)c2c1c(=O)c(C(=O)O)cn2[C@@H]1C[C@@H]1F` (stereo in doubt; 27 (-)): the MIC was found to be 0.006 µg/mL (≈ 0.0134 µM) in assay [1]; 0.006 µg/mL (≈ 0.0134 µM) in the assay on Streptococcus mitis; 0.01 µg/mL (≈ 0.0223 µM) with Streptococcus pyogenes; 0.2 µg/mL (≈ 0.446 µM) in the assay with Staphylococcus aureus [4]; 0.006 µg/mL (≈ 0.0134 µM) with Streptococcus pneumoniae.

Regarding `Nc1c(F)c(N2C[C@H]3C[C@@H]4C[C@@H]4[C@H](N)[C@H]3C2)c(F)c2c1c(=O)c(C(=O)O)cn2[C@@H]1C[C@@H]1F` (stereo in doubt; 26 (+)), the Selectivity in assay [5] was found to be 17.3.

For `Nc1c(F)c(N2C[C@H]3CC[C@H]4C[C@@]4(N)[C@H]3C2)c(F)c2c1c(=O)c(C(=O)O)cn2[C@@H]1C[C@@H]1F` (stereo in doubt; 13 (+)), the IC50 is 21.89 µg/mL (≈ 48.8 µM) against DNA topoisomerase II and 669 nM in assay [3]. Further, the MIC entry in assay [1] is “<=0.003 ug ml-1”; against Klebsiella pneumoniae, 0.01 µg/mL (≈ 0.0223 µM); in the assay with Streptococcus mitis, “<=0.003 ug ml-1”; against Streptococcus pyogenes, “<=0.003 ug ml-1”; in the assay on Escherichia coli (Escherichia coli, read-out: MIC), ≤ 0.003 µg/mL; against Enterococcus faecalis, 0.02 µg/mL (≈ 0.0446 µM). Further, the results for the minimum inhibitory concentration (MIC) in the assay with Staphylococcus aureus [2] (setting [6]), with Staphylococcus aureus [4] and against Streptococcus pneumoniae were ≤ 0.003 µg/mL, 0.006 µg/mL (≈ 0.0134 µM) and “<=0.003 ug ml-1”, respectively.

On to `Nc1c(F)c(N2C[C@H]3C[C@@H]4C[C@@H]4[C@@H](N)[C@H]3C2)c(F)c2c1c(=O)c(C(=O)O)cn2[C@@H]1C[C@@H]1F` (stereo in doubt; 24 (+)) [listing 2 of 2 here], for which the Selectivity in assay [5] amounted to 151.

`C[C@H]1COc2c(N3CCN(C)CC3)c(F)cc3c(=O)c(C(=O)O)cn1c23.C[C@H]1COc2c(N3CCN(C)CC3)c(F)cc3c(=O)c(C(=O)O)cn1c23.O` [LEVOFLOXACIN]: the MIC in [1] (Staphylococcus epidermidis, read-out: MIC) is 0.39 µg/mL; with Klebsiella pneumoniae (Klebsiella pneumoniae, read-out: MIC) it was 0.05 µg/mL; in the assay with Streptococcus mitis (Streptococcus mitis, read-out: MIC) it was 0.39 µg/mL; with Streptococcus pyogenes (Streptococcus pyogenes, read-out: MIC), 0.78 µg/mL; with Enterococcus faecalis (Enterococcus faecalis, ATCC 19433, read-out: MIC), 0.78 µg/mL; with Staphylococcus aureus [2] (setting [6]) it was 0.2 µg/mL. In addition, the MIC in the assay with Staphylococcus aureus [4] (setting [6]) is > 6.25 µg/mL; in the assay with Streptococcus pneumoniae (Streptococcus pneumoniae, read-out: MIC) it was 0.78 µg/mL.
